Data: PMC4398638 (Bioorganic & medicinal chemistry, 2015)

System: WI-38 human lung fibroblasts (normal) cell line (FR−)
Assay: MTT cytotoxicity assay, WI-38 cells
Assay type: cell-based
Conditions: normal (WI-38, FR−) cells versus FR-overexpressing cancer cells / free drug

## CC(=O)O[C@@]12CO[C@@H]1C[C@H](O)[C@@]1(C)C(=O)[C@H](OC(=O)C3CC3)C3=C(C)[C@@H](OC(=O)[C@H](OC(=O)Cc4ccccc4SSC(C)CCC(=O)NCCCOCCOCCOCCCNC(=O)c4ccc(CC5CCCCCc6c5nnn6CCOCCOCCOCCNC(=O)CC[C@H](NC(=O)CC[C@H](NC(=O)c5ccc(NCc6cnc7nc(N)[nH]c(=O)c7n6)cc5)C(=O)O)C(=O)N[C@@H](CCCNC(=N)N)C(=O)O)cc4)[C@H](C=C(C)C)NC(=O)OC(C)(C)C)C[C@@](O)([C@@H](OC(=O)c4ccccc4)[C@H]21)C3(C)C (stereo partly shown) [Conjugate 1]
  decrease in cytotoxicity against normal human cells: > 1,000 fold
